The values that follow come from US11192849B2, “Compounds, compositions, and methods for modulating ferroptosis and treating excitotoxic disorders” (THE TRUSTEES OF COLUMBIA UNIVERSITY IN THE CITY OF NEW YORK, priority 2013, dated 2021).

Broadly, the pEC50 is the negative decadic logarithm of the EC50, by convention in mol/L.

The nature of series [1]: In vitro stability study in mouse plasma. In kind it is in vitro ADME. The procedure: The assay was conducted by incubating 1 μM of test compounds with Mouse Plasma (Strain […]) for a series of incubation times (0, 15, 30, 60, 120 minutes) at various temperatures (wet ice, room temperature, or 37° C.) with 5% CO2 and shaking (130 rpm). At each time point, the samples were quenched with 200 μL of stop solution containing an internal standard and kept on ice. The samples were analysed by LC-MS/MS.

The test system of the next series is HT-1080 cells. In words: Inhibition of erastin (10 μM)-induced death in HT-1080 cells (Alamar Blue). The series is classed as cell-based, human. The following applies: for pEC50: Homo sapiens, read-out: EC50. Here is the method: Cell viability was typically assessed in 384-well format by Alamar Blue (Invitrogen) fluorescence (ex/em 530/590) measured on a Victor3 platereader (Perkin Elmer, Waltham, Mass.). In some experiments, Trypan Blue dye exclusion counting was performed using an automated cell counter (ViCell, Beckman-Coulter Inc., Brea, Calif.). Cell viability in test conditions is reported as a percentage relative to the negative control treatment.
The ability of various compounds disclosed herein to inhibit death in erastin (10 μM)-treated HT-1080 cells were tested. Cell viability was assessed by Alamar Blue. EC50 values (nM) were computed from dose response curves.
HT-1080 cells are cultured in DMEM containing 10% fetal bovine serum, 1% supplemented non-essential amino acids and 1% pen/strep mixture (Gibco) and maintained in a humidified environment at 37° C. with 5% CO2 in a tissue culture incubator. 1,000 HT-1080 cells are seeded per well in duplicate 384-well plates (Corning) using a BioMek FX liquid handling robot (Beckman Coulter). The next day, the medium is replaced with 36 μL of medium containing 10 μM erastin with 4 μL of medium containing a dilution series (previously prepared) of DMSO, Fer-1 (positive control) or Fer-1 analogs. 24 hours later, 10 μL Alamar Blue (Invitrogen) cell viability solution is added to the growth media to a final concentration of 10%. Cells are incubated a further 6 hours and then the Alamar Blue fluorescence intensity recorded using a Victor 3 platereader (PerkinElmer)(ex/em 530/590). All experiments are performed at least twice and the background (no cells)-subtracted Alamar Blue values for each combination are averaged between replicates.
Background: Resazurin is reduced to fluorescent resorufin, in cell work by metabolically active cells.

Series [2] in a line: Metabolic stability in mouse liver microsomes. In kind it is in vitro ADME. The following applies: for Elimination rate constant (k) / Intrinsic Clearance (CLint) (mL/min/g liver): Mouse; for half-life at 0.5 μM: mouse, liver microsomes. Here is the method:
Test compounds (0.5 μM) were incubated at 37° C. for up to 45 minutes in 50 mM of potassium phosphate buffer (pH 7.4) containing mouse liver microsomal protein (0.5 mg/mL) and an NADPH generating system (0.34 mg/mL β-nicotinamide adenine dinucleotide phosphate (NADP), 1.56 mg/mL glucose-6-phosphate, 1.2 units/mL glucose-6-phosphate dehydrogenase). At 0, 5, 15, 30, and 45 minute intervals, an aliquot was taken and quenched with acetonitrile (ACN) containing internal standard. No-cofactor controls at 45 minutes were prepared. Following completion of the experiment, the samples were analyzed by LC-MS/MS.
The half-life (t1/2) was calculated using the following equation: t1/2=0.693/k Where, k is the elimination rate constant of test compounds obtained by fitting the data to the equation: C=initial×exp(−k×t) Intrinsic clearance (Clint) is calculated as liver clearance from the half-life using the following equation: […]
0.5 mg protein/mL incubation
Ethoxycoumarin was used as a control.

The mark [3] stands for this setting: HT-1080, Table 1 (Example 10), erastin (10 μM)-treated HT-1080 cells.
[4] abbreviates: pH 7.4, Mouse, Compound Conc = 0.5 μM, read-out: Half life (t½).

pEC50: −log10 of the molar value. Read-outs that look alike come from different tables or passages of the source.

Take `CCOC(=O)c1ccc(NC23CC4CC(CC(C4)C2)C3)c(NCc2cncnc2)c1` [SRS16-41, ethyl 4-(adamantylamino)-3-(pyrimidin-5-ylmethylamino)benzoate]: the “Peak Area Ratio” value turned out to be 5.8556 in series [1] (Room Temperature, 0 min); 0.6709 in series [1] (Room Temperature, 15 min); 0.0885 in series [1] (Room Temperature, 30 min); 0.0206 in series [1] (Room Temperature, 60 min); 0.0159 in series [1] (Room Temperature, 120 min); 6.9233 in series [1] (Wet Ice, 0 min). In addition, the “Peak Area Ratio” value in series [1] (Wet Ice, 15 min) is on record as 5.7631; in series [1] (Wet Ice, 30 min) it was 4.7595; in series [1] (Wet Ice, 60 min), 3.4547; in series [1] (Wet Ice, 120 min), 1.9564. Besides, the “Percent Remaining” value in series [1] (Room Temperature, 0 min) worked out at 100.0%; in series [1] (Room Temperature, 15 min), 11.5%; in series [1] (Room Temperature, 30 min), 1.5%; in series [1] (Room Temperature, 60 min) it was 0.4%; in series [1] (Room Temperature, 120 min), 0.3%; in series [1] (Wet Ice, 0 min), 100.0%. For the same molecule, the “Percent Remaining” value in series [1] (Wet Ice, 15 min) is listed as 83.2%; in series [1] (Wet Ice, 30 min) it was 68.7%; in series [1] (Wet Ice, 60 min), 49.9%; in series [1] (Wet Ice, 120 min), 28.3%. In addition, the pEC50 in the series on HT-1080 cells (setting [3]) is 7.80. Moreover, the “Elimination rate constant (k)” value in series [2] (Compound Conc = 0.5 μM) is given as 0.3149. The “Intrinsic Clearance (CLint) (mL/min/g liver)” value in series [2] (Compound Conc = 0.5 μM) amounted to 35.9 mL/min/g liver. For the same molecule, the half-life at 0.5 μM in series [2] (setting [4]) is 0.0333 h.
With `CC(C)OC(=O)c1ccc(NC23CC4CC(CC(C4)C2)C3)c(/N=C\c2cncnc2)c1` [SRS16-80, isopropyl 4-(adamantylamino)-3-(pyrimidin-5-ylmethyleneamino)benzoate], in series [1], the “mouse plasma stability” value is recorded as “rapidly hydrolyzed”. In addition, the “Percent Remaining” value in series [1] (37° C., 0 minutes) is 100.0%; in series [1] (37° C., 15 minutes) it was 23.8%; in series [1] (37° C., 30 minutes) it was 9.9%; in series [1] (37° C., 60 minutes) it was 4.5%; in series [1] (37° C., 120 minutes), 2.5%. The “Sum of Peak Area Ratios” value is 0.382 in series [1] (37° C., 0 minutes); 0.0911 in series [1] (37° C., 15 minutes); 0.0379 in series [1] (37° C., 30 minutes); 0.017 in series [1] (37° C., 60 minutes); 0.0095 in series [1] (37° C., 120 minutes). In addition, in series [1] (C57BL/4, mouse, plasma, read-out: T1/2 in mouse plasma), the half-life at 1 μM is < 0.25 h. Also, the “fold lower potency caused by the imine” value in the series on HT-1080 cells (HT-1080, erastin (10 μM)) is on record as “about 6 fold”. Further, the pEC50 in the series with HT-1080 cells (HT-1080, Example 15, erastin (10 μM), HT-1080) is ~6.52; with HT-1080 cells (setting [3]) it was 6.23. Also, the “Elimination rate constant (k)” value in series [2] (Compound Conc = 0.5 μM) is on record as 0.0089. Moreover, the “Intrinsic Clearance (CLint) (mL/min/g liver)” value in series [2] (Compound Conc = 0.5 μM) is recorded as 0.94 mL/min/g liver. In addition, the half-life at 0.5 μM in series [2] (setting [4]) stood at 1.29 h; in series [2] (pH 7.4, stated in the text of Example 15, read-out: T1/2 in mouse liver microsomes), 2.57 h.
